Data set [1] has as its system recombinant NL4-3 virus (nef section replaced with Renilla luciferase gene) in MT-2 cells. Kind of data set: HIV cell culture assay (antiviral activity, luciferase readout). The note with it: Renilla, NL43, MT-2 cells infected for 4-5 days with recombinant NL4-3 Renilla luciferase virus, serial dilutions of compound. The class given is cell-based. How it is done:
HIV cell culture assay—MT-2 cells, 293T cells and the proviral DNA clone of NL4-3 virus were obtained from the NIH AIDS Research and Reference Reagent Program. MT-2 cells were propagated in RPMI 1640 media supplemented with 10% heat inactivated fetal bovine serum (FBS), 100 μg/ml penicillin G and up to 100 units/mL streptomycin. The 293T cells were propagated in DMEM media supplemented with 10% heat inactivated FBS, 100 μg/mL penicillin G and 100 μg/mL streptomycin. A recombinant NL4-3 proviral clone, in which a section of the nef gene was replaced with the Renilla luciferase gene, was used to make the reference virus used in these studies. The recombinant virus was prepared through transfection of the recombinant NL4-3 proviral clone into 293T cells using Transit-293 Transfection Reagent from Mirus Bio LLC (Madison, Wis.). Supernatent was harvested after 2-3 days and the amount of virus present was titered in MT-2 cells using luciferase enzyme activity as a marker by measuring luciferase enzyme activity. Luciferase was quantitated using the EnduRen Live Cell Substrate from Promega (Madison, Wis.). Antiviral activities of compounds toward the recombinant virus were quantified by measuring luciferase activity in MT-2 cells infected for 4-5 days with the recombinant virus in the presence of serial dilutions of the compound.
The 50% effective concentration (EC50) was calculated by using the exponential form of the median effect equation where (Fa)=1/[1+(ED50/drug conc.)^m] (Johnson VA, Byington RT. Infectivity Assay. In Techniques in HIV Research. ed. Aldovini A, Walker BD. 71-76. New York: Stockton Press. 1990). Curve fitting and analysis were performed with ActivityBase XE Runner software version 9.1.0.4 using model 203 (ID Business Solutions, LTD, Guildford, UK).

Data set [2] in a line: Compound cytotoxicity, XTT-based colorimetric assay. The format is cell-based. The note with it: human, uninfected MT2 cells, day 4, XTT. How it is done:
Compound cytotoxicity and the corresponding CC50 values were determined using the same protocol as described in the antiviral assay except that uninfected cells were used. Cytotoxicity was assessed on day 4 in uninfected MT2 cells by using a XTT (2,3-bis[2-Methoxy-4-nitro-5-sulfophenyl]-2H-tetrazolium-5-carboxyanilide inner salt)-based colorimetric assay (Sigma-Aldrich, St Louis, Mo.).

pEC50: −log10 of the molar value. A value given as a limit tells only on which side of the number the result lay.

In the case of `CC(C)c1ccc(-n2c([C@H](Cc3cc(F)cc(F)c3)NC(=O)Cn3nc(C(F)F)c4c3C(F)(F)[C@@H]3C[C@H]43)nc3cc(-c4nnn[nH]4)ccc3c2=O)cn1` [Example 7, 2-((3bS,4aR)-3-(difluoromethyl)-5,5-difluoro-3b,4,4a,5-tetrahydro-1H-cyclopropa[3,4]cyclopenta[1,2-c]pyrazol-1-yl)-N-((S)-2-(3,5-difluorophenyl)-1-(3-(6-isopropylpyridin-3-yl)-4-oxo-7-(1H-tetrazol-5-yl)-3,4-dihydroquinazolin-2-yl)ethyl)acetamide], the negative logarithm of the EC50 (pEC50) in data set [1] is 5.38. In data set [2], this compound registered a 50% cytotoxic concentration (CC50) at 4 day of over 1000 nM.
Regarding `O=C(Cc1ccn(C2CC2)n1)N[C@@H](Cc1cc(F)cc(F)c1)c1nc2cc(-c3ccccc3F)ccc2c(=O)n1-c1ccc(Cl)c2c(NS(=O)(=O)C3CC3)nn(CC(F)F)c12` [Example 139, (S)-N-(1-(3-(4-chloro-3-(cyclopropanesulfonamido)-1-(2,2-difluoroethyl)-1H-indazol-7-yl)-7-(2-fluorophenyl)-4-oxo-3,4-dihydroquinazolin-2-yl)-2-(3,5-difluorophenyl)ethyl)-2-(1-cyclopropyl-1H-pyrazol-3-yl)acetamide], in data set [1], the pEC50 was 9.24. In addition, the CC50 at 4 day in data set [2] is over 500 nM.
Regarding `Cn1nc(NS(C)(=O)=O)c2c(Cl)ccc(-n3c([C@H](Cc4cc(F)cc(F)c4)NC(=O)Cn4nc(C(F)F)c5c4C(F)(F)[C@@H]4C[C@H]54)nc4cc(-c5cc(F)c(F)c(F)c5)ccc4c3=O)c21` (atropisomer, axis not shown; (aR)) [Example 108, N-((S)-1-(3-(4-chloro-1-methyl-3-(methylsulfonamido)-1H-indazol-7-yl)-4-oxo-7-(3,4,5-trifluorophenyl)-3,4-dihydroquinazolin-2-yl)-2-(3,5-difluorophenyl)ethyl)-2-((3bS,4aR)-3-(difluoromethyl)-5,5-difluoro-3b,4,4a,5-tetrahydro-1H-cyclopropa[3,4]cyclopenta[1,2-c]pyrazol-1-yl)acetamide], the pEC50 in data set [1] is 9.11. In data set [2], this compound came in with a CC50 at 4 day of over 1000 nM.
As for `Cn1nc(NS(C)(=O)=O)c2c(Cl)ccc(-n3c([C@H](Cc4cc(F)cc(F)c4)NC(=O)Cn4nc(C(F)F)c5c4C(F)(F)[C@@H]4C[C@H]54)nc4cc(-c5cc(F)c(F)cc5F)ccc4c3=O)c21` [Example 171, N-((S)-1-(3-(4-chloro-1-methyl-3-(methylsulfonamido)-1H-indazol-7-yl)-4-oxo-7-(2,4,5-trifluorophenyl)-3,4-dihydroquinazolin-2-yl)-2-(3,5-difluorophenyl)ethyl)-2-((3bS,4aR)-3-(difluoromethyl)-5,5-difluoro-3b,4,4a,5-tetrahydro-1H-cyclopropa[3,4]cyclopenta[1,2-c]pyrazol-1-yl)acetamide], in data set [1], the negative-log EC50 (pEC50) was 9.32.
Regarding `Cn1nc(NS(C)(=O)=O)c2c(Cl)ccc(-n3c([C@H](Cc4cc(F)cc(F)c4)NC(=O)Cn4nc(C(F)F)c5c4C(F)(F)[C@@H]4C[C@H]54)nc4cc(-c5ccc(Cl)cc5Cl)ccc4c3=O)c21` (atropisomer, axis not shown; (aR)) [Example 63, N-((S)-1-(3-(4-chloro-1-methyl-3-(methylsulfonamido)-1H-indazol-7-yl)-7-(2,4-dichlorophenyl)-4-oxo-3,4-dihydroquinazolin-2-yl)-2-(3,5-difluorophenyl)ethyl)-2-((3bS,4aR)-3-(difluoromethyl)-5,5-difluoro-3b,4,4a,5-tetrahydro-1H-cyclopropa[3,4]cyclopenta[1,2-c]pyrazol-1-yl)acetamide], in data set [1], the pEC50 was 8.15. Besides, the CC50 at 4 day in data set [2] is over 1000 nM.
In the case of `Cn1nc(NS(C)(=O)=O)c2c(Cl)ccc(-n3c([C@H](Cc4cc(F)cc(F)c4)NC(=O)Cn4nc(C(F)F)c5c4C(F)(F)[C@@H]4C[C@H]54)nc4cc(-c5ccc(F)cc5CO)ccc4c3=O)c21` (atropisomer, axis not shown; (aR)) [Example 105, N-((S)-1-(3-(4-chloro-1-methyl-3-(methylsulfonamido)-1H-indazol-7-yl)-7-(4-fluoro-2-(hydroxymethyl)phenyl)-4-oxo-3,4-dihydroquinazolin-2-yl)-2-(3,5-difluorophenyl)ethyl)-2-((3bS,4aR)-3-(difluoromethyl)-5,5-difluoro-3b,4,4a,5-tetrahydro-1H-cyclopropa[3,4]cyclopenta[1,2-c]pyrazol-1-yl)acetamide], the pEC50 in data set [1] is 9.47. Moreover, in data set [2], the CC50 at 4 day is over 1000 nM.
For `COc1cccc(OC)c1-c1ccc2c(=O)n(-c3ccc(Cl)c4c(NS(C)(=O)=O)nn(C)c34)c([C@H](Cc3cc(F)cc(F)c3)NC(=O)Cn3nc(C(F)F)c4c3C(F)(F)[C@@H]3C[C@H]43)nc2c1` (atropisomer, axis not shown; (aR)) [Example 86, N-((S)-1-(3-(4-chloro-1-methyl-3-(methylsulfonamido)-1H-indazol-7-yl)-7-(2,6-dimethoxyphenyl)-4-oxo-3,4-dihydroquinazolin-2-yl)-2-(3,5-difluorophenyl)ethyl)-2-((3bS,4aR)-3-(difluoromethyl)-5,5-difluoro-3b,4,4a,5-tetrahydro-1H-cyclopropa[3,4]cyclopenta[1,2-c]pyrazol-1-yl)acetamide] the same measures were 9.30 and over 1000 nM.
For `Cc1cccc(C)c1-c1ccc2c(=O)n(-c3ccc(Cl)c4c(NS(C)(=O)=O)nn(C)c34)c([C@H](Cc3cc(F)cc(F)c3)NC(=O)Cn3nc(C(F)F)c4c3C(F)(F)[C@@H]3C[C@H]43)nc2c1` (atropisomer, axis not shown; (aR)) [Example 26, N-((S)-1-(3-(4-chloro-1-methyl-3-(methylsulfonamido)-1H-indazol-7-yl)-7-(2,6-dimethylphenyl)-4-oxo-3,4-dihydroquinazolin-2-yl)-2-(3,5-difluorophenyl)ethyl)-2-((3bS,4aR)-3-(difluoromethyl)-5,5-difluoro-3b,4,4a,5-tetrahydro-1H-cyclopropa[3,4]cyclopenta[1,2-c]pyrazol-1-yl)acetamide] the same measures were 9.14 and over 1000 nM.
For `Cn1nc(NS(C)(=O)=O)c2c(Cl)ccc(-n3c([C@H](Cc4cc(F)cc(F)c4)NC(=O)Cn4nc(C(F)F)c5c4C(F)(F)[C@@H]4C[C@H]54)nc4cc(-c5ccccc5CO)ccc4c3=O)c21` (atropisomer, axis not shown; (aR)) [Example 116, N-((S)-1-(3-(4-chloro-1-methyl-3-(methylsulfonamido)-1H-indazol-7-yl)-7-(2-(hydroxymethyl)phenyl)-4-oxo-3,4-dihydroquinazolin-2-yl)-2-(3,5-difluorophenyl)ethyl)-2-((3bS,4aR)-3-(difluoromethyl)-5,5-difluoro-3b,4,4a,5-tetrahydro-1H-cyclopropa[3,4]cyclopenta[1,2-c]pyrazol-1-yl)acetamide], in that order: 9.85 and over 500 nM.
With `O=C(Cn1nc(C(F)F)c2c1C(F)(F)[C@@H]1C[C@H]21)N[C@@H](Cc1cc(F)cc(F)c1)c1nc2cc(-c3ccncc3)ccc2c(=O)n1-c1ccc(S(=O)(=O)N2CCOCC2)cc1` [Example 69, 2-((3bS,4aR)-3-(difluoromethyl)-5,5-difluoro-3b,4,4a,5-tetrahydro-1H-cyclopropa[3,4]cyclopenta[1,2-c]pyrazol-1-yl)-N-((S)-2-(3,5-difluorophenyl)-1-(3-(4-(morpholinosulfonyl)phenyl)-4-oxo-7-(pyridin-4-yl)-3,4-dihydroquinazolin-2-yl)ethyl)acetamide], in data set [1], the pEC50 was 9.00. The compound further returned a CC50 at 4 day in data set [2] of over 1000 nM.

As usually defined, the pEC50 is the EC50 on a negative log10 scale, so that one unit is a factor of ten. As a reminder, the CC50 is the concentration giving 50% cytotoxicity.

For the origin of these results see US11505543B2, “4-oxo-3,4-dihydroquinazoline compounds as inhibitors of human immunodeficiency virus replication” (VIIV HEALTHCARE UK (NO.5) LIMITED, priority 2018, dated 2022).
